Experimental data: patent publication US10718006B2, “Methods for detecting beta-lactamase-producing bacteria” (priority 2015, dated 2020)

What was measured:
Type in all cases: cell-based
[1] = system: P. mirabilis strains; test: Electrochemical assay with substrate HMRZ-86, liquid cultures; settings: liquid culture, 30 min with HMRZ-86
Description: (§1) Each cryopreserved strain is cultured in 10 mL of LB medium at 37° C. until the stationary phase is obtained.
(§2) A volume of 50 μL of culture liquid is incubated in the presence of 50 μL of a solution of HMRZ-86 at 0.5 mM in PBS at 37° C. with stirring for 30 min. 40 μL of the reaction mixture is taken and transferred onto the surface of a screen-printed carbon sensor (Dropsens, DRP-110) connected beforehand to a STAT 8000P portable potentiostat (Dropsens) with power supply from the computer's USB port and controlled by the DropView 8400 software. Linear voltammetry measurements are carried out by linear potential scanning from −0.1 V to 1.2 V at a rate of 50 mV·s^−1. The peak current appearing in the potential range +0.2 to +0.55 V vs. Ag/AgCl, associated with hydrolysis of the beta-lactam ring of HMRZ-86, is selected as the analytical response. If the intensity of the peak (i) has a value above 500 nA, the sample contains a strain capable of degrading the C3Gs.
(§3) The electrochemical method of the invention was applied to analysis of a panel of 40 strains producing various β-lactamases and was compared with the R-Lacta™ Test (Biorad), the principle of which is based on qualitative colorimetric detection of the C3G-resistant strains. The results presented in Table 7 were obtained after 30 min of incubation of the bacteria with the substrate HMRZ-86 for both methods. Based on the interpretation of the results proposed by the supplier, the R-Lacta™ Test allows identification of the C3G-resistant strains with a level of agreement of 68%, whereas a level of agreement of 95% was obtained with the electrochemical method of the invention. In contrast to colorimetry, amperometry offers the advantage of measuring a numerical value of current which, on the one hand, avoids any subjective interpretation of the result (intermediate colour), and on the other hand allows traceability of the result.
(§4) Table 7: Comparison of the results obtained with the electrochemical method of the invention for liquid cultures with those obtained with the R-Lacta™ Test implemented according to the supplier's recommendations with isolated colonies. In both cases, the readings were taken after incubation with the substrate HMRZ-86 for 30 min.

[2] = system: K. oxytoca strain; test: as above; settings: K. oxytoca 11779, Low-level penicillinase; liquid culture, 30 min with HMRZ-86
Description: as §1, §2, §3, §4

[3] = system: C. freundii strain; test: as above; settings: C. freundii 11745, Inducible cephalosporinase; liquid culture, 30 min with HMRZ-86
Description: as §1, §2, §3, §4

[4] = system: E. aerogenes strains; test: as above; settings: liquid culture, 30 min with HMRZ-86
Description: as §1, §2, §3, §4

[5] = system: E. cloacae strains; test: as above; settings: liquid culture, 30 min with HMRZ-86
Description: as §1, §2, §3, §4

[6] = system: K. pneumoniae strains; test: as above; settings: liquid culture, 30 min with HMRZ-86
Description: as §1, §2, §3, §4

[7] = system: S. marcescens strain; test: as above; settings: S. marcescens 11787, Hyperproduced cephalosporinase; liquid culture, 30 min with HMRZ-86
Description: as §1, §2, §3, §4

[8] = system: P. aeruginosa strains; test: as above; settings: liquid culture, 30 min with HMRZ-86
Description: as §1, §2, §3, §4

[9] = system: E. coli strains producing various β-lactamases; test: as above; settings: liquid culture, 30 min with HMRZ-86
Description: as §1, §2, §3, §4

[10] = system: C. freundii strain; test: β-Lacta Test (colorimetric, HMRZ-86), isolated colonies; parameters: key: Yellow or orange colour: negative result (absence of C3G-resistant strains); Orange: Yellow or orange colour: negative result (absence of C3G-resistant strains); Red colour: positive result (presence of C3G-resistant strains); settings: C. freundii 11745, Inducible cephalosporinase, 30 min with HMRZ-86
Description: as §3, §4

[11] = system: E. cloacae strains; test: as above; parameters: key: Yellow or orange colour: negative result (absence of C3G-resistant strains); Orange: Yellow or orange colour: negative result (absence of C3G-resistant strains); Red colour: positive result (presence of C3G-resistant strains); settings: 30 min with HMRZ-86
Description: as §3, §4

[12] = system: S. marcescens strain; test: as above; parameters: key: Yellow or orange colour: negative result (absence of C3G-resistant strains); Orange: Yellow or orange colour: negative result (absence of C3G-resistant strains); Red colour: positive result (presence of C3G-resistant strains); settings: S. marcescens 11787, Hyperproduced cephalosporinase, 30 min with HMRZ-86
Description: as §3, §4

[13] = system: P. aeruginosa strains; test: as above; parameters: key: Yellow or orange colour: negative result (absence of C3G-resistant strains); Orange: Yellow or orange colour: negative result (absence of C3G-resistant strains); Red colour: positive result (presence of C3G-resistant strains); settings: 30 min with HMRZ-86
Description: as §3, §4

[14] = E. cloacae 11784, Hyperproduced cephalosporinase
[15] = E. cloacae 11790, Hyperproduced cephalosporinase
[16] = E. cloacae 11794, Hyperproduced cephalosporinase
[17] = P. aeruginosa 11774, Hyperproduced cephalosporinase
[18] = P. aeruginosa 11778, Hyperproduced cephalosporinase
[19] = P. aeruginosa 11782, Hyperproduced cephalosporinase

Structure (SMILES): CC(C)(ON=C(C(=O)N[C@@H]1C(=O)N2C(C(=O)O)=C(C=Cc3ccc([N+](=O)[O-])cc3[N+](=O)[O-])CS[C@H]12)c1csc(N)n1)C(=O)O.O=C(O)C(F)(F)F [HMRZ-86, (6R,7R)-trifluoroacetate 7-[[2-(2-amino-4-thiazolyl)-2-[(1-carboxy-1-methylethoxy)imino]acetyl]amino]-1-aza-3-[2-(2,4-dinitrophenyl)ethenyl]-8-oxo-5-thiabicyclo[4.2.0]oct-2-ene-2-carboxylic acid]
- Electrochemical assay Intensity ([1]; P. mirabilis 11747, Beta-lactamase negative): 322 nA
- Electrochemical assay Intensity ([1]; P. mirabilis 11768, Low-level penicillinase): 233 nA
- Electrochemical assay Intensity [2]: 412 nA
- Electrochemical assay Intensity [3]: 369 nA
- Electrochemical assay Intensity ([4]; E. aerogenes 11772, Inducible cephalosporinase): 362 nA
- Electrochemical assay Intensity ([4]; E. aerogenes 11775, Hyperproduced cephalosporinase): 501 nA
- Electrochemical assay Intensity ([4]; E. aerogenes 11796, ESBL TEM 24): 1249 nA
- Electrochemical assay Intensity [5, 14]: 569 nA
- Electrochemical assay Intensity [5, 15]: 686 nA
- Electrochemical assay Intensity [5, 16]: 842 nA
- Electrochemical assay Intensity ([6]; K. pneumoniae 11754, Carbapenemase OXA-48 - CTX-M): 3520 nA
- Electrochemical assay Intensity ([6]; K. pneumoniae 11762, Carbapenemase OXA-48): 476 nA
- Electrochemical assay Intensity ([6]; K. pneumoniae 11770, Low-level penicillinase): 365 nA
- Electrochemical assay Intensity ([6]; K. pneumoniae 11812, ESBL CTX-M-15): 3494 nA
- Electrochemical assay Intensity ([6]; K. pneumoniae 11839, Carbapenemase KPC-2): 1567 nA
- Electrochemical assay Intensity ([6]; K. pneumoniae 11842, Carbapenemase NDM-1): 1257 nA
- Electrochemical assay Intensity [7]: 3922 nA
- Electrochemical assay Intensity [8, 17]: 2160 nA
- Electrochemical assay Intensity [8, 18]: 2278 nA
- Electrochemical assay Intensity [8, 19]: 1778 nA
- Electrochemical assay Intensity ([9]; E. coli 11746, Hyperproduced penicillinase): 380 nA
- Electrochemical assay Intensity ([9]; E. coli 11748, Inducible cephalosporinase): 424 nA
- Electrochemical assay Intensity ([9]; E. coli 11755, Carbapenemase OXA-48 - CTX-M): 3509 nA
- Electrochemical assay Intensity ([9]; E. coli 11757, Carbapenemase OXA-48): 625 nA
- Electrochemical assay Intensity ([9]; E. coli 11765, Hyperproduced penicillinase): 323 nA
- Electrochemical assay Intensity ([9]; E. coli 11766, Inducible cephalosporinase): 408 nA
- Electrochemical assay Intensity ([9]; E. coli 11776, Inducible cephalosporinase): 446 nA
- Electrochemical assay Intensity ([9]; E. coli 11780, Hyperproduced penicillinase): 425 nA
- Electrochemical assay Intensity ([9]; E. coli 11781, Low-level penicillinase): 377 nA
- Electrochemical assay Intensity ([9]; E. coli 11791, Hyperproduced cephalosporinase): 816 nA
- Electrochemical assay Intensity ([9]; E. coli 11810, ESBL CTX-M-1): 2544 nA
- Electrochemical assay Intensity ([9]; E. coli 11817, ESBL CTX-M-2): 1472 nA
- Electrochemical assay Intensity ([9]; E. coli 11818, ESBL CTX-M-1): 3583 nA
- Electrochemical assay Intensity ([9]; E. coli 11820, ESBL SHV-12): 1249 nA
- Electrochemical assay Intensity ([9]; E. coli 11828, ESBL CTX-M-27): 2640 nA
- Electrochemical assay Intensity ([9]; E. coli 11833, ESBL CTX-M-9): 2455 nA
- Electrochemical assay Intensity ([9]; E. coli 11834, ESBL TEM-12): 418 nA
- Electrochemical assay Intensity ([9]; E. coli 11863, ESBL CTX-M-14): 2544 nA
- Electrochemical assay Intensity ([9]; E. coli K12, Beta-lactamase negative): 302 nA
- β-Lacta ™ Test Colour [10]: Yellow
- β-Lacta ™ Test Colour [11, 14]: Orange
- β-Lacta ™ Test Colour [11, 15]: Orange
- β-Lacta ™ Test Colour [11, 16]: Orange
- β-Lacta ™ Test Colour [12]: Orange
- β-Lacta ™ Test Colour [13, 17]: Orange
- β-Lacta ™ Test Colour [13, 18]: Yellow
- β-Lacta ™ Test Colour [13, 19]: Yellow
